Laboratory results from patent publication US8722849B2, “Polypeptides” (Novo Nordisk A/S, priority 2011, dated 2014).
≈ marks a conversion by molar mass, not a printed value. Read-outs that look alike come from different tables or passages of the source. Starred links: 1 amine or outer side, 2 acyl side, 3 side chain; linkers in the order of their positions; H or OH if unused. Positions of bridges follow the written chain, without caps; N, C: chain ends. Residues, ends and D or L forms follow the SMILES beside them. *: point of attachment. C20 diacid = O=C(O)CCCCCCCCCCCCCCCCCCC(=O)*; γGlu = O=C(O)[C@H](CCC(=O)[*:2])N[*:1]

Experiments:
[1] = Assay (III) ThT fibrillation assay for physical stability; format: physicochemical; settings: ThT fibrillation assay
In short: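 Freshly prepared formulations, pH-adjusted, with 1 μM ThT; four or eight replicates incubated at 37 °C under 960 rpm orbital shaking. Fluorescence (ex 444/em 485 nm) read every 20 min; […]. Peptide concentration measured by RP-HPLC before and after the run.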

[2] = molecular target: T1, human calcitonin receptor (Homo sapiens, UniProt P30988); assay: Assay (II)a functional CRE-luciferase assay, human calcitonin receptor; format: cell-based; settings: Table 7; human calcitonin (CTa) receptor
T1 construct: expressed in transfected cells; host or cells: BHK570
T1 sequence (P30988 25-474): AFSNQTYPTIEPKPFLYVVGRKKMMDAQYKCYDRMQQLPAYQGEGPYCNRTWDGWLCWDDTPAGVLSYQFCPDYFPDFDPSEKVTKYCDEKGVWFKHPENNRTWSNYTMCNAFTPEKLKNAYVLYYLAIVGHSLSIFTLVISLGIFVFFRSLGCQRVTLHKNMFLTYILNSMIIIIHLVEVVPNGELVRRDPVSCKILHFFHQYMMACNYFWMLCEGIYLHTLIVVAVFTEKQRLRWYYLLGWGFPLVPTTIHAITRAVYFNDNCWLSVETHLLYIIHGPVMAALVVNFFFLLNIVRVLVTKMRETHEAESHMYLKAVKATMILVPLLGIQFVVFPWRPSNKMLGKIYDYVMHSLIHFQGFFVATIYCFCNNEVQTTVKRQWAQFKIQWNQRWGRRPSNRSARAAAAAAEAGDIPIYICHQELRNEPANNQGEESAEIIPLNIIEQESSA

[3] = Assay (IV) determination of solubility; format: physicochemical
In short: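 Stock ~500 nmol/ml in water; 1:1 with 100 mM buffer, pH 3.0–8.0 (glycylglycine ≤5.0, bistrispropane ≥6.0); 18 h RT; spin; HPLC quantitation of soluble polypeptide.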

[4] = molecular target: T2, human amylin receptor (amylin 3(a) receptor: human calcitonin receptor + RAMP-3) (Homo sapiens, UniProt O60896+P30988); assay: Assay (II)a functional CRE-luciferase assay, human amylin receptor; format: cell-based; settings: Table 2; BHK amylin 3(a)-receptor/CRE-luc cells
T2 construct: expressed in transfected cells; host or cells: BHK570
T2 sequence (P30988 25-474): T1 sequence (P30988 25-474)
T2 sequence (O60896 24-148 partner): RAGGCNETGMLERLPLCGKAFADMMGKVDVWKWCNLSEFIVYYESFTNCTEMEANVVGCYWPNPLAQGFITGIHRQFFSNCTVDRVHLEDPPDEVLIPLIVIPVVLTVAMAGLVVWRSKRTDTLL

[5] = bistrispropane buffer, pH 6, pH 6.0, read-out: Solubility pH 6.0
[6] = bistrispropane buffer, pH 7.5, pH 7.5, read-out: Solubility pH 7.5
[7] = bistrispropane buffer, pH 8, pH 8.0, read-out: Solubility pH 8.0
[8] = glycylglycine buffer, pH 3, pH 3.0, read-out: Solubility pH 3.0
[9] = glycylglycine buffer, pH 4, pH 4.0, 18 hours at room temperature, Table 2, read-out: Solubility pH 4.0
[10] = glycylglycine buffer, pH 4, pH 4.0, read-out: Solubility pH 4.0
[11] = glycylglycine buffer, pH 5, pH 5.0, read-out: Solubility pH 5.0

Structure (SMILES)	ThT pH 4.0 lag time [1] [h]	ThT pH 4.0 lag time (h) [1] [h]	EC50 [2] [nM]	solubility at 18 h [3, 5] [µM]	solubility at 18 h ([3]; bistrispropane buffer, pH 6.5, pH 6.5, read-out: Solubility pH 6.5) [µM]	solubility at 18 h ([3]; bistrispropane buffer, pH 7, pH 7.0, read-out: Solubility pH 7.0) [µM]	solubility at 18 h [3, 6] [µM]	solubility at 18 h [3, 7] [µM]	solubility at 18 h [3, 8] [µM]	solubility at 18 h [3, 9] [µM]	solubility at 18 h [3, 10] [µM]	solubility at 18 h [3, 11] [µM]	EC50 [4] [nM]
CC[C@H](C)[C@H](NC(=O)[C@@H]1CCCN1C(=O)CNC(=O)[C@H](Cc1ccccc1)NC(=O)[C@H](CC(N)=O)NC(=O)[C@H](CC(N)=O)NC(=O)[C@H](CO)NC(=O)[C@H](CO)NC(=O)[C@H](Cc1c[nH]cn1)NC(=O)[C@H](Cc1c[nH]cn1)NC(=O)[C@H](CC(C)C)NC(=O)[C@H](Cc1ccccc1)NC(=O)[C@H](CCC(=O)O)NC(=O)[C@H](C)NC(=O)[C@H](CC(C)C)NC(=O)[C@H](CCCNC(=N)N)NC(=O)[C@H](CCC(N)=O)NC(=O)[C@@H](NC(=O)[C@H](C)NC(=O)[C@@H]1CSSC[C@H](NC(=O)[C@H](CCCCN)NC(=O)[C@H](CO)NC(=O)CC[C@H](NC(=O)CCCCCCCCCCCCCCCCCCC(=O)O)C(=O)O)C(=O)N[C@@H](CC(N)=O)C(=O)N[C@@H]([C@@H](C)O)C(=O)N[C@@H](C)C(=O)N[C@@H]([C@@H](C)O)C(=O)N1)[C@@H](C)O)C(=O)N[C@@H](CC(C)C)C(=O)N1CCC[C@H]1C(=O)N1CCC[C@H]1C(=O)N[C@H](C(=O)N[C@@H](CC(N)=O)C(=O)N[C@H](C(=O)NCC(=O)N[C@@H](CO)C(=O)N[C@@H](Cc1c[nH]cn1)C(=O)N[C@H](C(=O)N[C@@H](Cc1ccc(O)cc1)C(N)=O)[C@@H](C)O)C(C)C)[C@@H](C)O [Example 85, N-alpha-[(S)-4-Carboxy-4-(19-carboxynonadecanoylamino)butyryl]-Ser-[Glu14,His17,His35]-pramlintide] ({C20 diacid-γGlu}-SKCNTATCATQRLAEFLHHSSNNFGPILPPTNVGSHTY-NH2; disulfide 3-8 (inferred); C-terminus assumed)	>45	>45	0.153	185 (≈ 845 µg/mL)	64 (≈ 292 µg/mL)	22 (≈ 100 µg/mL)	47 (≈ 215 µg/mL)	109 (≈ 498 µg/mL)	> 200	> 200	> 200	> 200	0.133
CC[C@H](C)[C@H](NC(=O)[C@@H]1CCCN1C(=O)CNC(=O)[C@H](Cc1ccccc1)NC(=O)[C@H](CC(N)=O)NC(=O)[C@H](CC(N)=O)NC(=O)[C@H](CO)NC(=O)[C@H](CO)NC(=O)[C@H](Cc1c[nH]cn1)NC(=O)[C@H](Cc1c[nH]cn1)NC(=O)[C@H](CC(C)C)NC(=O)[C@H](Cc1ccccc1)NC(=O)[C@H](CCC(=O)O)NC(=O)[C@H](C)NC(=O)[C@H](CC(C)C)NC(=O)[C@H](CCCNC(=N)N)NC(=O)[C@H](CCC(N)=O)NC(=O)[C@@H](NC(=O)[C@H](C)NC(=O)[C@@H]1CSSC[C@H](NC(=O)[C@H](Cc2c[nH]cn2)NC(=O)[C@H](Cc2c[nH]cn2)NC(=O)[C@H](Cc2c[nH]cn2)NC(=O)CC[C@H](NC(=O)CCCCCCCCCCCCCCCCCCC(=O)O)C(=O)O)C(=O)N[C@@H](Cc2c[nH]cn2)C(=O)N[C@@H]([C@@H](C)O)C(=O)N[C@@H](C)C(=O)N[C@@H]([C@@H](C)O)C(=O)N1)[C@@H](C)O)C(=O)N[C@@H](CC(C)C)C(=O)N1CCC[C@H]1C(=O)N1CCC[C@H]1C(=O)N[C@H](C(=O)N[C@@H](CC(N)=O)C(=O)N[C@H](C(=O)NCC(=O)N[C@@H](CO)C(=O)N[C@@H](CC(N)=O)C(=O)N[C@H](C(=O)N[C@@H](Cc1ccc(O)cc1)C(N)=O)[C@@H](C)O)C(C)C)[C@@H](C)O [Example 35, N-alpha-[(S)-4-Carboxy-4-(19-carboxynonadecanoylamino)butyryl]-His-His-[His1,His3,Glu14,His17]-pramlintide] ({C20 diacid-γGlu}-HHHCHTATCATQRLAEFLHHSSNNFGPILPPTNVGSNTY-NH2; disulfide 4-9)	–	1.3	0.801	17 (≈ 81 µg/mL)	–	–	9 (≈ 42.9 µg/mL)	66 (≈ 314 µg/mL)	> 200	> 200	> 200	194 (≈ 924 µg/mL)	0.286
